Experimental data published in patent US10894807B2 (Siemens Medical Solutions USA, Inc., priority 2011, dated 2021).

Molecular target: human PSMA (Homo sapiens (Human), UniProt Q04609)
Assay: Enzymatic assay for in vitro evaluation of PSMA inhibitors (fluorescent assay of PSMA activity, NAAG substrate, OPA detection of glutamate)
Assay type: biochemical
Conditions: not given

Sequence of human PSMA (Q04609 whole entry): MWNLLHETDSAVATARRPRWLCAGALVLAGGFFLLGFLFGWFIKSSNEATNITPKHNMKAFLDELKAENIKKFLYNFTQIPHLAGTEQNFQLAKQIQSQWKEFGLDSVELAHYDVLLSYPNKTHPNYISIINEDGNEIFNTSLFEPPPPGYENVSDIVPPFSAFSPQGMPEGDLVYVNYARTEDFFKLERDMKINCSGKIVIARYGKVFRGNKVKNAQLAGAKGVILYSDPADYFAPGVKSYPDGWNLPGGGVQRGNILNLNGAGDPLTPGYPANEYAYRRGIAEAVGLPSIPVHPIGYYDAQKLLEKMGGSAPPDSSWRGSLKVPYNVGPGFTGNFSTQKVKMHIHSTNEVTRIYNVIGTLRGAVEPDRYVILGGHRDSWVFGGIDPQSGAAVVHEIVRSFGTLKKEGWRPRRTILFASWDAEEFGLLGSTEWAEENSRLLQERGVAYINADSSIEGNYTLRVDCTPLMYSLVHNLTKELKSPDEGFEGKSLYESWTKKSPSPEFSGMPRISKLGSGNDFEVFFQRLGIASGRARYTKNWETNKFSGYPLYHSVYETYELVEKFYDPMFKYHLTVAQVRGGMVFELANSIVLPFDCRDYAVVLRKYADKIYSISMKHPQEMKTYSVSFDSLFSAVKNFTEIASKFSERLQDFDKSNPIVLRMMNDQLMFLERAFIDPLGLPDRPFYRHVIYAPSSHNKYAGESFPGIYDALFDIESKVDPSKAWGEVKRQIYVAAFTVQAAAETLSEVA

| SMILES | Ki [nM] |
| --- | --- |
| CN(C(=O)N[C@@H](CCC(=O)O)C(=O)O)[C@@H](CCCCNC(=O)CCCc1ccc(-n2cc(CCCF)nn2)cc1)C(=O)O [P103] | 235 |
| CN(C(=O)N[C@@H](CCC(=O)O)C(=O)O)[C@@H](CCCCNC(=O)c1ccc(F)nc1)C(=O)O [P133, (S)-2-(3-((S)-1-Carboxy-5-(6-fluoronicotinamide)pentyl)-3-methylureido)-pentanedioic Acid] | 125 |

Same assay, conditions: compound at 10 μM

| SMILES | PSMA Blkg % (10 μM) [%] |
| --- | --- |
| O=C(O)CC[C@@H](C(=O)O)N1C(=O)/C(=C(\O)CCCCn2cc(CCCF)nn2)C(=O)N(Cc2ccccc2)C1=O [P102, (S,Z)-2-(3-Benzyl-5-(5-(4-(3-fluoropropyl)-1H-1,2,3-triazol-1-yl)-1-hydroxypentylidene)-2,4,6-trioxotetrahydropyrimidin-1(2H)-yl)pentanedioic Acid] | 0 |
| CN(C(=O)N[C@@H](CCC(=O)O)C(=O)O)[C@@H](CCCCNC(=O)CCCc1ccc(-n2cc(CCCF)nn2)cc1)C(=O)O [P103] | 91 |
| CCC1(CC)C(=O)N([C@@H](CCCCN(Cc2ccc([N+](=O)[O-])cc2)Cc2ccc([N+](=O)[O-])cc2)C(=O)O)C(=O)N([C@@H](CCC(=O)O)C(=O)O)C1=O [P104, (S)-2-(3-((S)-5-(Bis(4-nitrobenzyl)amino)-1-carboxypentyl)-5,5-diethyl-2,4,6-trioxotetrahydropyrimidin-1(2H)-yl)pentanedioic Acid] | 7 |
| CCC1(CC)C(=O)N([C@@H](CCCCN(Cc2ccc([N+](=O)[O-])cc2)C(=O)CCCCn2cc(CCCF)nn2)C(=O)O)C(=O)N([C@@H](CCC(=O)O)C(=O)O)C1=O [P105, (S)-2-(3-((S)-1-Carboxy-5-(5-(4-(3-fluoropropyl)-1H-1,2,3-triazol-1-yl)-N-(4-nitrobenzyl)pentanamido)pentyl)-5,5-diethyl-2,4,6-trioxotetrahydropyrimidin-1(2H)-yl)pentanedioic Acid] | 5 |
| O=C(O)CC[C@@H](C(=O)O)N1C(=O)N([C@@H](CCCCNC(=O)OCc2ccccc2)C(=O)O)C(=O)C2(CCC2)C1=O [P106, (2S)-2-(8-((S)-5-(Benzyloxycarbonylamino)-1-carboxypentyl)-5,7,9-trioxo-6,8-diazaspiro[3.5]nonan-6-yl)pentanedioic Acid] | 67 |
| CCC1(CC)C(=O)N([C@@H](CCCCNS(=O)(=O)c2ccc([N+](=O)[O-])cc2)C(=O)O)C(=O)N([C@@H](CCC(=O)O)C(=O)O)C1=O [P107, (S)-2-(3-((S)-1-Carboxy-5-(4-nitrophenylsulfonamido)pentyl)-5,5-diethyl-2,4,6-trioxotetrahydropyrimidin-1(2H)-yl)pentanedioic Acid] | 19 |
| CCC1(CC)C(=O)N([C@@H](CCCCNC(=O)NCc2ccccc2)C(=O)O)C(=O)N([C@@H](CCC(=O)O)C(=O)O)C1=O [P108, (S)-2-(3-((S)-5-(3-benzylureido)-1-carboxypentyl)-5,5-diethyl-2,4,6-trioxotetrahydropyrimidin-1(2H)-yl)pentanedioic Acid] | 11 |
| O=C(O)CCC(C(=O)O)n1cc(COc2ccc3ccc(=O)oc3c2)nn1 (centres unmarked) [P109, 2-(4-(((2-oxo-2H-chromen-7-yl)oxy)methyl)-1H-1,2,3-triazol-1-yl)pentanedioic Acid] | 24 |
| CCC1(CC)C(=O)N([C@@H](CCCCNCc2ccc([N+](=O)[O-])cc2)C(=O)O)C(=O)N([C@@H](CCC(=O)O)C(=O)O)C1=O [P110, (S)-2-(3-((S)-1-carboxy-5-(4-nitrobenzylamino)pentyl)-5,5-diethyl-2,4,6-trioxotetrahydropyrimidin-1(2H)-yl)pentanedioic Acid] | 8 |
| O=C(O)CC[C@H](NC(=O)CCN(O)C(=O)CCCc1ccc(-n2cc(CCCF)nn2)cc1)C(=O)O [P111, (S)-2-(3-(4-(4-(4-(3-Fluoropropyl)-1H-1,2,3-triazol-1-yl)phenyl)-N-hydroxybutanamido)propanamido)pentanedioic Acid] | 9 |
| CCC1(CC)C(=O)N([C@@H](CCCCNCc2ccc(OC)cc2)C(=O)O)C(=O)N([C@@H](CCC(=O)O)C(=O)O)C1=O [P112, (S)-2-(3-((S)-1-Carboxy-5-(4-methoxybenzylamino)pentyl)-5,5-diethyl-2,4,6-trioxotetrahydropyrimidin-1(2H)-yl)pentanedioic Acid] | 4 |
| CCC1(CC)C(=O)N([C@@H](CCCCNC(=O)c2ccc(F)nc2)C(=O)O)C(=O)N([C@@H](CCC(=O)O)C(=O)O)C1=O [P113, (S)-2-(3-((S)-1-Carboxy-5-(6-fluoronicotinamido)pentyl)-5,5-diethyl-2,4,6-trioxotetrahydropyrimidin-1(2H)-yl)pentanedioic Acid] | 11 |
| CCC1(CC)C(=O)N([C@@H](CCCCNC/C=C/c2ccc(-n3cc(CCCF)nn3)cc2)C(=O)O)C(=O)N([C@@H](CCC(=O)O)C(=O)O)C1=O [P114, (S)-2-(3-((S)-1-Carboxy-5-((E)-3-(4-(4-(3-fluoropropyl)-1H-1,2,3-triazol-1-yl)phenyl)allylamino)pentyl)-5,5-diethyl-2,4,6-trioxotetrahydropyrimidin-1(2H)-yl)pentanedioic Acid] | 8 |
| O=C(O)CC[C@H](NC(=O)C[C@H](NC(=O)CCCc1ccc(-n2cc(CCCF)nn2)cc1)C(=O)O)C(=O)O [P115] | 36 |
| O=C(O)CC[C@H](NC(=O)C[C@H](NC(=O)CCCNC(=O)OCc1ccccc1)C(=O)O)C(=O)O [P116, (10S,14S)-3,8,12-Trioxo-1-phenyl-2-oxa-4,9,13-triazahexadecane-10,14,16-tricarboxylic Acid] | 31 |
| O=C(O)CC[C@@H](C(=O)O)N1C(=O)NC(=O)/C(=C(/O)CCC(NC(=O)OCC2c3ccccc3-c3ccccc32)C(=O)O)C1=O (some centres unmarked) [P117] | 18 |
| CCC1(CC)C(=O)N([C@@H](CCCCNC(=O)OCc2ccc([N+](=O)[O-])cc2)C(=O)O)C(=O)N([C@@H](CCC(=O)O)C(=O)O)C1=O [P118, (S)-2-(3-((S)-1-Carboxy-5-((4-nitrobenzyloxy)carbonylamino)pentyl)-5,5-diethyl-2,4,6-trioxotetrahydropyrimidin-1(2H)-yl)pentanedioic Acid] | 13 |

| SMILES | PSMA Blkg % (10 μM) [%] |
| --- | --- |
| O=C(O)CC[C@H](NC(=O)C[C@H](NC(=O)CCCCNC(=O)c1ccccc1)C(=O)O)C(=O)O [P119, (S)-2-((S)-3-(5-Benzamidopentanamido)-3-carboxypropanamido)pentanedioic Acid] | 26 |
| O=C(O)CC[C@@H](C(=O)O)N1C(=O)CC(=O)N([C@@H](CCCCNC(=O)OCc2ccc([N+](=O)[O-])cc2)C(=O)O)C1=O [P120, (S)-2-(3-((S)-1-Carboxy-5-((4-nitrobenzyloxy)carbonylamino)pentyl)-2,4,6-trioxotetrahydropyrimidin-1(2H)-yl)pentanedioic Acid] | 15 |
| NC(=O)CCC(C(=O)O)n1cc(COc2ccc3ccc(=O)oc3c2)nn1 (centres unmarked) [P121, 5-Amino-5-oxo-2-(4-(((2-oxo-2H-chromen-7-yl)oxy)methyl)-1H-1,2,3-triazol-1-yl)pentanoic Acid] | 7 |
| COc1ccc(CCCC(=O)N[C@@H](CC(=O)N[C@@H](CCC(=O)O)C(=O)O)C(=O)O)cc1 [P122, (S)-2-((S)-3-Carboxy-3-(4-(4-methoxyphenyl)butanamido)propanamido)-pentanedioic Acid] | 18 |
| O=C(O)CC[C@H](NC(=O)C[C@H](NC(=O)CCCc1ccc([N+](=O)[O-])cc1)C(=O)O)C(=O)O [P123, (S)-2-((S)-3-Carboxy-3-(4-(4-nitrophenyl)butanamido)propanamido)pentanedioic Acid] | 17 |
| O=C(O)CC[C@@H](C(=O)O)N1C(=O)CC(=O)NC1=O [P126] | 12 |
| Nc1ccc(/C(O)=C2\C(=O)NC(=O)N([C@@H](CCC(=O)O)C(=O)O)C2=O)cc1 [P127, (S,Z)-2-(5-((4-Aminophenyl)(hydroxy)methylene)-2,4,6-trioxotetrahydropyrimidin-1(2H)-yl)pentanedioic Acid] | 10 |
| O=C(O)CC[C@@H](C(=O)O)N1C(=O)CC(=O)N([C@@H](CCCCNS(=O)(=O)c2ccc([N+](=O)[O-])cc2)C(=O)O)C1=O [P128, (S)-2-(3-((S)-1-Carboxy-5-(4-nitrophenylsulfonamido)pentyl)-2,4,6-trioxotetrahydropyrimidin-1(2H)-yl)pentanedioic Acid] | 12 |
| O=C(O)CC[C@@H](C(=O)O)N1C(=O)CC(=O)N([C@@H](CCCCNC(=O)NCc2ccccc2)C(=O)O)C1=O [P129, (S)-2-(3-((S)-5-(3-Benzylureido)-1-carboxypentyl)-2,4,6-trioxotetrahydropyrimidin-1(2H)-yl)pentanedioic Acid] | 10 |
| CCC1(CC)C(=O)N([C@@H](CCCCNC(=S)Nc2ccc(-n3cc(CCCF)nn3)cc2)C(=O)O)C(=O)N([C@@H](CCC(=O)O)C(=O)O)C1=O [P130, (S)-2-(3-((S)-1-Carboxy-5-(3-(4-(4-(3-fluoropropyl)-1H-1,2,3-triazol-1-yl)phenyl)thioureido)pentyl)-5,5-diethyl-2,4,6-trioxotetrahydropyrimidin-1 (2H)-yl)pentanedioic Acid] | 10 |
| O=C(O)CC[C@H](NC(=O)CN(O)C(=O)CCCCNC(=O)c1ccccc1)C(=O)O [P131, (S)-2-(2-(5-Benzamido-N-hydroxypentanamido)acetamido)pentanedioic Acid] | 6 |
| COc1ccc(CCCC(=O)N(O)CC(=O)N[C@@H](CCC(=O)O)C(=O)O)cc1 [P132, (S)-2-(2-(N-Hydroxy-4-(4-methoxyphenyl)butanamido)acetamido)pentanedioic Acid] | 17 |
| CN(C(=O)N[C@@H](CCC(=O)O)C(=O)O)[C@@H](CCCCNC(=O)c1ccc(F)nc1)C(=O)O [P133, (S)-2-(3-((S)-1-Carboxy-5-(6-fluoronicotinamide)pentyl)-3-methylureido)-pentanedioic Acid] | 95 |
| Nc1ccc(CCCC(=O)N(O)CC(=O)N[C@@H](CCC(=O)O)C(=O)O)cc1 [P134, (S)-2-(2-(4-(4-Aminophenyl)-N-hydroxybutanamido)acetamido)pentanedioic Acid] | 37 |
| O=C(O)CC[C@@H](NC(=O)N(O)[C@@H](CC(=O)NCc1ccccc1)C(=O)O)C(=O)O [P135, (R)-2-(3-((S)-3-(Benzylamino)-1-carboxy-3-oxopropyl)-3-hydroxyureido)pentanedioic Acid] | 42 |
| [N-]=[N+]=Nc1ccc(CCCC(=O)NC(Cc2cn(C(CCC(=O)O)C(=O)O)nn2)C(=O)O)cc1 (centres unmarked) [P137] | 3 |
